Source: patent US20230312605A1, “PYRROLO[2,1-F][1,2,4]TRIAZINES AND PREPARATION AND USES THEREOF” (BioSplice Therapeutics, Inc., priority 2021, published 2023)

How the values were obtained:
[1] = target: recombinant DYRK1A kinase (Homo sapiens (Human), UniProt Q13627); experiment: DYRK1A kinase assay (Ser/Thr 18 peptide Z-lyte FRET assay); assay type: biochemical; conditions: recombinant DYRK1A 0.25 µg/mL, ATP 15 µM, Ser/Thr peptide 18 4 µM, one hour at room temperature; table head prints EC50, method says IC50
How it was run: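 Z-lyte FRET format: 1 h room-temperature reaction of 15 µM ATP, 4 µM Ser/Thr 18 peptide and 0.25 µg/mL recombinant human DYRK1A, in duplicate over 11 compound concentrations up to 10 µM. IC50 was derived by non-linear regression of percent phosphorylation calculated from coumarin/fluorescein emission ratios.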

[2] = tested on: Tau phosphorylation at Thr212 (pThr212) in HEK293T cells transfected with DYRK1A and MAPT; experiment: phosphoTau (Thr212) AlphaLISA tau phosphorylation cell assay; assay type: cell-based; conditions: HEK-293T, HEK293T cells transiently transfected with human DYRK1A and MAPT, compound treatment 18-24 hours, read-out: pTau (Thr212) EC50
Protocol: Representative compounds were screened using the assay procedure for tau phosphorylation activity described below.
HEK293T cells (ATCC, CRL3216) cultured in DMEM (Thermo Fisher Scientific, 10566024) supplemented with 10% FBS (Corning, 35-011-CV) and Penicillin/Streptomycin (Thermo Fisher Scientific, 15140163) were seeded in a 75 cm^2 flask at 8.1 × 10^6 cells/flask. The HEK293T cells were then transiently transfected with 5 µg DYRK1A (NM_001396) human untagged clone (OriGene, SC314641) and 2.5 µg MAPT (441 a.a. Tau gene) (NM_005910) human untagged clone (OriGene, TP313312) using Lipofectamine 3000 (Thermo Fisher Scientific, L30000015) and incubated for 20-30 hours in a humidified incubator at 37° C. and 5% CO^2. Post-incubation, HEK293T cells transfected with the DYRK1A and MAPT expression vectors were harvested and seeded in BioCoat poly-D lysine coated 96-well plates (Corning, 354461) at 3 × 10^4 cells/well.
The above synthesized compounds were screened using the cell assay procedure to assess decreased Tau phosphorylation at Thr212 (pThr212) described below.
Each compound was dissolved in DMSO (Sigma-Aldrich, D8418-100 mL) as a 10 mM stock. 10 mM stocks were serially diluted 1:3, 10-point dose-response curve and added to the cells with a final concentration ranging from 20 µM to 1.1 nM. Cells were treated with compounds in duplicate and incubated for 18-24 hours in a humidified incubator at 37° C. and 5% CO^2.
Following the overnight compound treatment, cells were lysed with 1X Alpha Surefire Ultra Lysis Buffer (Perkin Elmer, ALSU-LB-100ML) complemented with 1X Halt Phosphatase Inhibitor Cocktail (Thermo Fisher Scientific, 78427) and 1X Halt Protease Inhibitor Cocktail (Thermo Fisher Scientific, 78438). Lysates were spun down at 12,000 g for 10 min to remove any cellular debris and 5 µL of lysates were dispensed into a 384-well Opti-Plate (Perkin Elmer, 6007290) for the measurement of Tau phosphorylation in the phosphoTau (Thr212) AlphaLISA assay. Donor antibody, biotinylated HT7Tau (Thermo Fisher Scientific, MN1000B), and acceptor antibody, pThr212Tau (Thermo Fisher Scientific, 44740G) were both added to the cell lysates at a final concentration of 3 nM and incubated for 1 hour at room temperature. Following incubation of the lysates with the donor and acceptor antibodies, anti-rabbit IgG(Fc specific) AlphaLISA acceptor beads (Perkin Elmer, AL104C) were added at a 10 ug/mL final concentration and incubated for 1 hour at room temperature protected from light. Lastly, AlphaScreen streptavidin donor beads (PerkinElmer, 6760002) were added at 40 ug/mL final concentration and incubated for 1 hour at room temperature protected from light. Plates were read at Ex= […], and Em=615 nm on the EnVision Multilabel Plate Reader (Perkin Elmer)
phospho-Tau (Thr212) AlphaLISA signal was used to plot, draw the curve fitting, and determine each compound’s EC50 in Prism (GraphPad).

Row | SMILES | EC50 [1] [µM] | EC50 [2] [µM]
1 | N[C@H]1CC[C@@H](Nc2ncc3c(-c4ccc5ncccc5c4)ccn3n2)CC1 [Compound 1332, cis-N^1-(5-(Quinolin-6-yl)pyrrolo[2,1-f][1,2,4]triazin-2-yl)cyclohexane-1,4-diamine] | 0.02 | 0.524
2 | c1cn2cc(-c3ccn4nc(NC5COC5)ncc34)ccc2n1 [Compound 65, 5-(Imidazo[1,2-a]pyridin-6-yl)-N-(oxetan-3-yl)pyrrolo[2,1-f][1,2,4]triazin-2-amine] | 0.025 | 0.828
3 | FC1(F)CC(Nc2ncc3c(-c4ccc5nccn5c4)ccn3n2)C1 [Compound 23, N-(3,3-Difluorocyclobutyl)-5-(imidazo[1,2-a]pyridin-6-yl)pyrrolo[2,1-f] [1,2,4]triazin-2-amine] | 0.028 | 0.794
4 | FC1(F)CCC(Nc2ncc3c(-c4ccc5nccn5c4)ccn3n2)CC1 [Compound 43, N-(4,4-Difluorocyclohexyl)-5-(imidazo[1,2-a]pyridin-6-yl)pyrrolo[2,1-f] [1,2,4]triazin-2-amine] | 0.019 | 0.504
5 | CO[C@H]1C[C@@H](Nc2ncc3c(-c4ccc5nccn5c4)ccn3n2)C1 [Compound 26, 5-(Imidazo[1,2-a]pyridin-6-yl)-N-(cis-3-methoxycyclobutyl)pyrrolo[2,1-f] [1,2,4]triazin-2-amine] | 0.011 | 0.238

Continued, in another order:

Row | EC50 [1] [µM] | SMILES | EC50 [2] [µM]
6 | 0.003 | FC1(F)CC2(CC(Nc3ncc4c(-c5cnc6nccn6c5)ccn4n3)C2)C1 [Compound 281, N-(6,6-Difluorospiro[3.3]heptan-2-yl)-5-(imidazo[1,2-a]pyrimidin-6-yl) pyrrolo[2,1-f] [1,2,4]triazin-2-amine] | 0.07
7 | 0.011 | Cc1nc2ncc(-c3ccn4nc(NCC(C)(C)F)ncc34)cc2n1C1CCOCC1 [Compound 784, N-(2-Fluoro-2-methylpropyl)-5-(2-methyl-1-(tetrahydro-2H-pyran-4-yl)-1H-imidazo[4,5-b]pyridin-6-yl)pyrrolo[2,1-f] [1,2,4]triazin-2-amine] | 0.516
8 | 0.003 | CO[C@H]1CC[C@@H](Nc2ncc3c(-c4ccc5nc(C)n(CC(F)F)c5n4)ccn3n2)CC1 [Compound 1111, 5-(3-(2,2-Difluoroethyl)-2-methyl-3H-imidazo[4,5-b]pyridin-5-yl)-N-(cis-4-methoxycyclohexyl)pyrrolo[2,1-f][1,2,4]triazin-2-amine] | 0.071
9 | 0.005 | Cc1nc2ccc(-c3ccn4nc(NCC(C)(C)F)ncc34)nc2n1C(C)C [Compound 1801, N-(2-Fluoro-2-methylpropyl)-5-(3-isopropyl-2-methyl-3H-imidazo[4,5-b]pyridin-5-yl)pyrrolo [2,1-f][1,2,4]triazin-2-amine] | 0.152
10 | 0.013 | FC1(CNc2ncc3c(-c4cnc5nccn5c4)ccn3n2)COC1 [Compound 228, N-((3 -Fluorooxetan-3-yl)methyl)-5-(imidazo [1,2-a]pyrimidin-6-yl)pyrrolo [2,1-f][1,2,4]triazin-2-amine] | 0.292
11 | 0.005 | FC1(F)CCC(Nc2ncc3c(-c4cnc5nccn5c4)ccn3n2)CC1 [Compound 256, N-(4,4-Difluorocyclohexyl)-5-(imidazo[1,2-a]pyrimidin-6-yl)pyrrolo[2,1-f] [1,2,4]triazin-2-amine] | 0.22
